Assay [1] concerns the target T1, human norepinephrine transporter (Homo sapiens, UniProt P23975).
T1 construct: host or cells: HEK-293
Kind of assay: hNET receptor binding ([125I]-RTI-55 radioligand binding). The note with it: membranes of HEK-293 cells transfected with human norepinephrine transporter, IC50 converted to Ki by Cheng-Prusoff, read-out: hNET (Ki). From the text: (§1) The ability of the compounds of this invention to bind to the hNET and serotonin SERT receptor can be determined using conventional radiolig and receptor binding assays. The receptors can be heterologously expressed in cell lines and experiments conducted in membrane preparations from the cell lines using procedures outlined below. IC50 concentrations can be determined by nonlinear regression of concentration-dependent reduction in specific binding. The Cheng-Prussoff equation can be used to convert the IC50 to Ki concentrations.
Cell pastes of HEK-293 cells transfected with the human norepinephrine transporter were supplied by the Pfizer Ann Arbor Protein Expression and Production group. […] Aliquots of membranes (5 mg/ml protein) were stored in liquid nitrogen until used.
The reaction was incubated by gentle agitation for 90 min at room temperature and was terminated by filtration through Whatman GF/C filter plates using a Brandel 96-well plate harvester. […] Test compounds were run in duplicate, and specific binding was defined as the difference between binding in the presence and absence of 10 μM desipramine.
(§2) Excel and GraphPad Prism software were used for data calculation and analysis. IC50 values were converted to Ki values using the Cheng-Prusoff equation.

The target of assay [2] is T2, human seritonin transporter (Homo sapiens, UniProt P31645).
T2 construct: host or cells: HEK-293
T2 sequence (P31645 whole entry): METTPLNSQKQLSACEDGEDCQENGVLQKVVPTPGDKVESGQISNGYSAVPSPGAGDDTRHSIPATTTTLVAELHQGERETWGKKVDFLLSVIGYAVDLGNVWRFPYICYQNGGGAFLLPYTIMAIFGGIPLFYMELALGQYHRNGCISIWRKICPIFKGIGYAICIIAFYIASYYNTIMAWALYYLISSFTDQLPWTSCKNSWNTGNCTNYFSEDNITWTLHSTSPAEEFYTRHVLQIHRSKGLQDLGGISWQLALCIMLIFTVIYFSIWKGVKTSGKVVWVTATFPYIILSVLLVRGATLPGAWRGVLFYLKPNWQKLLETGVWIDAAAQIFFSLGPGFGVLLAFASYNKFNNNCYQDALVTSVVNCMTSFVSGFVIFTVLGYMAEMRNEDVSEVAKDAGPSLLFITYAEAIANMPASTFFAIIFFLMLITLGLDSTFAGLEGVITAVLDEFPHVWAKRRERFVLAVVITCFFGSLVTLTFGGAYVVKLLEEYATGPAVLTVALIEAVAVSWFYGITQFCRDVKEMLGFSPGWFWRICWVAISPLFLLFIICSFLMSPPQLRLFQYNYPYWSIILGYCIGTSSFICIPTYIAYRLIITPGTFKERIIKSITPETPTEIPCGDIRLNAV
Kind of assay: hSERT receptor binding ([125I]-RTI-55 radioligand binding). The conditions noted are these: membranes of HEK-293 cells transfected with human seritonin transporter, IC50 converted to Ki by Cheng-Prusoff, read-out: SERT (Ki).
Excerpt: as §1
Cell pastes of HEK-293 cells transfected with the human seritonin transporter were supplied by the Pfizer Ann Arbor Protein Expression and Production group. […] Aliquots of membranes (5 mg/ml protein) were stored in liquid nitrogen until used.
The reaction was incubated by gentle agitation for 90 min at room temperature and was terminated by filtration through Whatman GF/C filter plates using a Brandel 96-well plate harvester. […] Test compounds were run in duplicate, and specific binding was defined as the difference between binding in the presence and absence of […] citalopram.
as §2

Where only a bound is given, the exact number is not on record here.

T1 sequence (P23975 whole entry): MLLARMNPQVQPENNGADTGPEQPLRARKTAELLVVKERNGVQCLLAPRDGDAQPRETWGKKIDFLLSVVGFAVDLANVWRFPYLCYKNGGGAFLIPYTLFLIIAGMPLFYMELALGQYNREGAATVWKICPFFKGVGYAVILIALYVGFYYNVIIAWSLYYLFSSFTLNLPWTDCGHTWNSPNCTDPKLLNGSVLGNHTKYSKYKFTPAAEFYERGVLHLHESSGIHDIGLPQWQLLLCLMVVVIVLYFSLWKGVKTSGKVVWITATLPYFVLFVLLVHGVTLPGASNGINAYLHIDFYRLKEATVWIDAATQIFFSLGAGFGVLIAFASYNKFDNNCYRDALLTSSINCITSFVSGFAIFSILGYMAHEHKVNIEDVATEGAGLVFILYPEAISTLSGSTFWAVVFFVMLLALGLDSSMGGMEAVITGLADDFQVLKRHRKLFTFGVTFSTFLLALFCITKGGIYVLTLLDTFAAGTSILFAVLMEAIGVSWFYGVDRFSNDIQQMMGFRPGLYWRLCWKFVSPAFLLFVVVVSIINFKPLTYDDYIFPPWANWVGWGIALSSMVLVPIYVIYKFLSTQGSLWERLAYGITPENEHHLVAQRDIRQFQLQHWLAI

Turning to `Fc1ccccc1OC(c1cccnc1)[C@@H]1CNCCO1` (mixture of isomers) [Example 23, (S)-2-[(S)-(2-Fluorophenoxy)-pyridin-3-yl-methyl]-morpholine], the Ki in assay [1] was found to be 0.051 µM; in assay [2], 2.63 µM.

Take `COc1cccc(F)c1OC(c1cccnc1)[C@H]1CNCCO1` (mixture of isomers) [Example 31, (2R,3R) and (R)-2-[(S)-(2-Fluoro-6-methoxy-phenoxy)-pyridin-3-yl-methyl]-morpholine]: the Ki turned out to be 0.085 µM in assay [1] and 0.348 µM in assay [2].

Regarding `Fc1ccc(OC(C2CC2)[C@@H]2CNCCO2)c(F)c1` (mixture of isomers) [Example 99, (2S)-2-[cyclopropyl(2,4-difluorophenoxy)methyl]morpholine], the Ki in assay [1] is 0.88 µM; in assay [2] it was 1.27 µM.

As to `Fc1cccc(F)c1OC(Cc1ccccc1)[C@@H]1CNCCO1` (mixture of isomers) [Example 101, (2S)-2-[1-(2,6-difluorophenoxy)-2-phenylethyl]morpholine], the values for the Ki in assay [1] and in assay [2] were 0.066 µM and 0.912 µM, respectively.

For the compound `CCCC(Oc1ccccc1OCC)[C@@H]1CNCCO1` (mixture of isomers) [Example 104, (2S)-2-[(1S)-1-(2-ethoxyphenoxy)butyl]morpholine], the Ki in assay [1] is 2.39 µM; in assay [2], 9.79 µM.

As to `CCOc1ccccc1OC(CC(C)C)[C@@H]1CNCCO1` (mixture of isomers) [Example 105, (2S)-2-[(1S)-1-(2-ethoxyphenoxy)-3-methylbutyl]morpholine], the Ki in assay [1] amounted to 1.5 µM; in assay [2], 5.59 µM.

With `CCOc1ccccc1OC(CC)[C@@H]1CNCCO1` (mixture of isomers) [Example 106], the inhibition constant (Ki) in assay [1] was 0.054 µM; in assay [2], at least 10 µM.

`Cc1coc(C(Oc2c(F)cccc2F)[C@@H]2CNCCO2)n1` (mixture of isomers) [Example 134, (2S)-2-[(2,6-difluorophenoxy)(4-methyl-1,3-oxazol-2-yl)methyl]morpholine]: the Ki is 0.018 µM in assay [1] and at least 10 µM in assay [2].

For the compound `CCOc1ncccc1OC(CC)[C@@H]1CNCCO1` (mixture of isomers) [Example 136, (2S)-2-{1-[(2-ethoxypyridin-3-yl)oxy]propyl}morpholine], the Ki was found to be 0.102 µM in assay [1] and 6.14 µM in assay [2].

As for `Fc1cccc(F)c1OC(c1cc2ccccc2o1)[C@@H]1CNCCO1` (mixture of isomers) [Example 143, (2S)-2-[1-benzofuran-2-yl(2,6-difluorophenoxy)methyl]morpholine], the results for the inhibition constant Ki in assay [1] and in assay [2] were 0.896 µM and 3.32 µM, respectively.

`Fc1cccc(F)c1OC(C1=CCCC1)[C@@H]1CNCCO1` (mixture of isomers) [Example 146, (2S)-2-[(S)-cyclopent-1-en-1-yl(2,6-difluorophenoxy)methyl]morpholine]: the results for the Ki in assay [1] and in assay [2] were 0.02 µM and 3.7 µM, respectively.

With `CCOc1ccccc1OC(c1ncco1)[C@@H]1CNCCO1` (mixture of isomers) [Example 195, (S)-2-[(2-ethoxyphenoxy)(1,3-oxazol-2-yl)methyl]morpholine], the results for the Ki in assay [1] and in assay [2] were 0.01 µM and 7.06 µM, respectively.

Consider `Fc1cccc(F)c1OC(c1ncco1)[C@@H]1CNCCO1` (mixture of isomers) [Example 196, (S)-2-[(2,6-difluorophenoxy)(1,3-oxazol-2-yl)methyl]morpholine], for which the Ki in assay [1] is 0.009 µM; in assay [2], at least 10 µM.

In the case of `COc1cccc(F)c1OC(c1cccnc1)[C@H]1CNCCO1` (mixture of isomers) [Example 202, (2R)-2-[(2-fluoro-6-methoxyphenoxy)(pyridin-3-yl)methyl]morpholine], the inhibition constant (Ki) is 0.045 µM in assay [1] and 0.722 µM in assay [2].

For `Cc1ccccc1-c1ccccc1OCC1CNCCO1` (racemic) [Example 88, 2-(2′-Methyl-biphenyl-2-yloxymethyl)-morpholine], the results for the Ki in assay [1] and in assay [2] were 0.633 µM and at least 10 µM, respectively.

Consider `N#Cc1ccccc1O[C@@H](c1ccccn1)[C@@H]1CNCCO1` (single isomer, unassigned) [Example 22 (2S, 3R)], for which the Ki in assay [1] turned out to be 4.82 µM; in assay [2], 6.67 µM.

With `CCOc1ccccc1O[C@H](c1cccnc1)[C@@H]1CNCCO1` (single isomer, unassigned) [Example 25], the Ki in assay [1] was 0.124 µM; in assay [2], at least 10 µM.

Consider `Cc1ccc(-c2cc(F)ccc2OCC2CNCCO2)cc1` (single isomer, unassigned) [Example 75], for which the Ki in assay [1] worked out at 0.022 µM; in assay [2] it was 0.849 µM.

Take `Fc1ccccc1OC(c1ccccn1)[C@@H]1CNCCO1` (single isomer, unassigned) [Example 120]: the inhibition constant (Ki) in assay [1] is 0.01 µM; in assay [2], at least 10 µM.

`Fc1ccccc1OC(c1ccccn1)[C@@H]1CNCCO1` (single isomer, unassigned) [Example 121]: the Ki in assay [1] is 0.47 µM; in assay [2], at least 10 µM.

In the case of `Fc1ccc(OC(c2cccnc2)C2CNCCO2)c(Cl)c1` (stereo in doubt) [Example 19, (S)-2-[(R)-(2-Chloro-4-fluoro-phenoxy)-pyridin-3-yl-methyl]-morpholine], the Ki in assay [1] was 1.02 µM; in assay [2], 0.074 µM.

As for `c1ccc(C(Oc2ccc3ccoc3c2)C2CNCCO2)cc1` (stereo in doubt) [Example 45, (R)-2-[(S)-(Benzofuran-6-yloxy)-phenyl-methyl]-morpholine], the inhibition constant (Ki) turned out to be 0.01 µM in assay [1] and 0.045 µM in assay [2].

Take `CCOc1ccccc1OC(c1cccc(F)c1)C1CNCCO1` (stereo in doubt) [Example 70, (R)-2-[(S)-(2-Ethoxy-phenoxy)-(3-fluoro-phenyl)-methyl]-morpholine]: the Ki in assay [1] amounted to 0.011 µM; in assay [2], 0.818 µM.

In the case of `Fc1ccc(Oc2nccnc2OCC2CNCCO2)cc1` (stereo in doubt) [Example 78, (S)-2-[3-(4-Fluoro-phenoxy)-pyrazin-2-yloxymethyl]-morpholine], the Ki in assay [1] is 7.97 µM; in assay [2] it was at least 10 µM.

As for `CCOc1ccccc1OC(c1cccc[n+]1[O-])[C@@H]1CNCCO1` (stereo in doubt) [Example 100, (2S)-2-[(S)-(2-ethoxyphenoxy)(1-oxidopyridin-2-yl)methyl]morpholine], the inhibition constant Ki in assay [1] was 0.152 µM; in assay [2], at least 10 µM.

Take `Fc1cccc(C2CC2)c1O[C@@H](c1ccccc1)C1CNCCO1` (stereo in doubt) [Example 184, (2S)-2-[(S)-(2-cyclopropyl-6-fluorophenoxy)(phenyl)methyl]morpholine]: the figures for the Ki in assay [1] and in assay [2] were 0.006 µM and 0.46 µM, respectively.

For the compound `FC(F)(F)Oc1ccccc1O[C@@H](c1ccccc1)[C@@H]1CNCCO1` [Example 1, (S)-2-[(S)-Phenyl-(2-trifluoromethoxy-phenoxy)-methyl]-morpholine], the Ki in assay [1] was found to be 0.0099 µM; in assay [2] it was 3.94 µM.

Take `CCSc1ccccc1O[C@@H](c1ccccc1)[C@@H]1CNCCO1` [Example 2, (S)-2-[(S)-(2-Ethylsulfanyl-phenoxy)-phenyl-methyl]-morpholine]: the Ki in assay [1] is 0.0063 µM; in assay [2], 0.564 µM.

For the compound `CC(C)Cc1ccccc1O[C@@H](c1ccccc1)[C@@H]1CNCCO1` [Example 3, (S)-2-[(S)-(2-isobutyl-phenoxy)-phenyl-methyl]-morpholine], the Ki in assay [1] was 0.033 µM; in assay [2], 1.58 µM.

As for `Brc1ccccc1O[C@@H](c1ccccc1)[C@@H]1CNCCO1` [Example 4, (S)-2-[(S)-(2-Bromo-phenoxy)-phenyl-methyl]-morpholine], the Ki in assay [1] is 0.0016 µM; in assay [2] it was 0.708 µM.

In the case of `C=Cc1ccccc1O[C@@H](c1ccccc1)[C@@H]1CNCCO1` [Example 5, (S)-2-[(S)-Phenyl-(2-vinyl-phenoxy)-methyl]-morpholine], the Ki came to 0.013 µM in assay [1] and 1.18 µM in assay [2].

Take `COCc1ccccc1O[C@@H](c1ccccc1)[C@@H]1CNCCO1` [Example 7, (S)-2-[(S)-(2-Methoxymethyl-phenoxy)-phenyl-methyl]-morpholine]: the Ki came out at 0.017 µM in assay [1] and 6.61 µM in assay [2].

In the case of `FC(F)(F)c1ccccc1O[C@@H](c1ccccc1)[C@@H]1CNCCO1` [Example 8, (S)-2-[(S)-Phenyl-(2-trifluoromethyl-phenoxy)-methyl]-morpholine], the Ki came out at 0.0042 µM in assay [1] and 4.71 µM in assay [2].

For the compound `c1ccc(Cc2ccccc2O[C@@H](c2ccccc2)[C@@H]2CNCCO2)cc1` [Example 9, (S)-2-[(S)-(2-Benzyl-phenoxy)-phenyl-methyl]-morpholine], the Ki in assay [1] was determined as 0.015 µM; in assay [2] it was 0.967 µM.

Consider `N#Cc1ccccc1O[C@@H](c1ccccn1)[C@@H]1CNCCO1` [Example 22 (2S, 3S), (2S,3S)-2-(Morpholin-2-yl-pyridin-2-yl-methoxy)-benzonitrile], for which the Ki in assay [1] came out at 0.012 µM.

These data come from patent publication US7659394B2 (Pfizer Inc, priority 2004, dated 2010).
